The results in this text go back to patent US10988477B2 (Merck Patent GmbH, priority 2018, dated 2021).

Sequence of GCN2 kinase (Q9P2K8 whole entry): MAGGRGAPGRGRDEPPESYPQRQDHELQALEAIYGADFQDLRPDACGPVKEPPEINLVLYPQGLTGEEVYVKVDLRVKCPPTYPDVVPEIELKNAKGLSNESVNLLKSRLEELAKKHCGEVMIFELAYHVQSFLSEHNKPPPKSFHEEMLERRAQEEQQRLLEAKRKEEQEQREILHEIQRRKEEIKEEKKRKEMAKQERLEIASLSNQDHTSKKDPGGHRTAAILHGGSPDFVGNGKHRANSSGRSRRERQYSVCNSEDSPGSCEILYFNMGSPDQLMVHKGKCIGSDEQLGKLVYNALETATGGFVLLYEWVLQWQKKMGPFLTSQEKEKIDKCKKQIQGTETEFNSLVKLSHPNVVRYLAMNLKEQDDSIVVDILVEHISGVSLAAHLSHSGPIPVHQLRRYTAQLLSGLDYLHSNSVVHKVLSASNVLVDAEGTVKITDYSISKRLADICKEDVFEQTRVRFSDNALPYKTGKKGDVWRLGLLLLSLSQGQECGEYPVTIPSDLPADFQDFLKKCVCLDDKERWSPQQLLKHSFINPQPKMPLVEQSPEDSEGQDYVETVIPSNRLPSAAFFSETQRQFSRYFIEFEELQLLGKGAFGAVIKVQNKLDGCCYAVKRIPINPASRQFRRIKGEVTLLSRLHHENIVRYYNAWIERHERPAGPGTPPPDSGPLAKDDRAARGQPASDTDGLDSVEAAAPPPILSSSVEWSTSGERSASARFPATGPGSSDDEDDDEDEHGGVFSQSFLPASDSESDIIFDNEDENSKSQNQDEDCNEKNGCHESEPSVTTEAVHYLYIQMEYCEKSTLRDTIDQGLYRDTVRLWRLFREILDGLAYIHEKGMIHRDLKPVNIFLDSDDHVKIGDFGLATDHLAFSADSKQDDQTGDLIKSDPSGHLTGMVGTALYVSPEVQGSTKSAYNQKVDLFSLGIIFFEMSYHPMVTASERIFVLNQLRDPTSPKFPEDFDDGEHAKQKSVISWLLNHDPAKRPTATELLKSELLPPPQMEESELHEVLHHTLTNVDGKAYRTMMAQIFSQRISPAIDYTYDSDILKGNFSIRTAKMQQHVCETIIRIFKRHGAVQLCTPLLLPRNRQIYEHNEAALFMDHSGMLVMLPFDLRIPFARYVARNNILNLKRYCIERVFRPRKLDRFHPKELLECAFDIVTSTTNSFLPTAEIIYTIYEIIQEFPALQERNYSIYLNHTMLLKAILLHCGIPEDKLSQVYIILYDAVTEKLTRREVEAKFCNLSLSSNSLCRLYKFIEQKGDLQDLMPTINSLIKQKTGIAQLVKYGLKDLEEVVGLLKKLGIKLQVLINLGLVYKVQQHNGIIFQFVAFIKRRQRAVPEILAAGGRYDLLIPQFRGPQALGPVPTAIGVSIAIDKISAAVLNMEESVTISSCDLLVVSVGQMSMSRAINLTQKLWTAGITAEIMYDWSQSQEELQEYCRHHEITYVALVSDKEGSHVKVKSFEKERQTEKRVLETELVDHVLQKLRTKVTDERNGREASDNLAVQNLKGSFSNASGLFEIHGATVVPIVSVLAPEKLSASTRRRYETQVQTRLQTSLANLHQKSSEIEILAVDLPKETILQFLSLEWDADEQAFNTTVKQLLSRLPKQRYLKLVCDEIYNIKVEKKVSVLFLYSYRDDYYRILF

The first assay addresses GCN2 kinase (Homo sapiens, UniProt Q9P2K8). Nature of the assay: GCN2 enzyme inhibition assay (Transcreener ADP2 fluorescence polarization). Type of assay: biochemical. The conditions noted are these: Enzyme activity for compounds of Formula IV; Ki(app), 280 μM ATP, 25° C. In outline:
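Kinase activity is followed as ADP formation, measured by fluorescence polarization, using 4 nM enzyme with 280 μM ATP and 200 μM (RS)7 peptide at pH 7.5 and 25 °C for 1 h. Values come from a non-linear tight-binding fit.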
Background: Fluorescence polarisation rises when a labelled molecule tumbles more slowly, as on binding a larger partner.
`FC(F)(F)c1cn2c(-c3nccc(N4CCCC4Cc4ccccc4)n3)cnc2cn1` (stereo not drawn) [IV-561, 3-(4-(2-Benzylpyrrolidin-1-yl)pyrimidin-2-yl)-6-(trifluoromethyl)imidazo[1,2-a]pyrazine] displayed a Ki of 100 to 1000 nM. The same measure, in the same setting: with `FC(F)c1cn2c(-c3nccc(-c4cccc(N5CCNCC5)n4)n3)cnc2cn1` [IV-149, 6-(Difluoromethyl)-3-(4-(6-(piperazin-1-yl)pyridin-2-yl)pyrimidin-2-yl)imidazo[1,2-a]pyrazine] the figure was 100 to 1000 nM; with `Cc1n[nH]c(C)c1C1CCCN(c2ccnc(-c3cnc4cnc(C(F)(F)F)cn34)n2)C1` (single isomer, unassigned) [IV-477, 3-(4-(3-(3,5-Dimethyl-1H-pyrazol-4-yl)piperidin-1-yl)pyrimidin-2-yl)-6-(trifluoromethyl)imidazo[1,2-a]pyrazine], 10 to 100 nM; with `FC(F)(F)c1cn2c(-c3nccc(N4CCCC(c5ncc[nH]5)C4)n3)cnc2cn1` (stereo not drawn) [IV-708], 10 to 100 nM.

With `OCC1CN(c2ccnc(-c3cnc4cnc(C(F)(F)F)cn34)n2)CCO1` (stereo not drawn) [IV-446, (4-(2-(6-(Trifluoromethyl)imidazo[1,2-a]pyrazin-3-yl)pyrimidin-4-yl)morpholin-2-yl)methanol], the Ki was in the range of 100 to 1000 nM. Molecule `O=c1nc(C2CCCN(c3ccnc(-c4cnc5cnc(C(F)(F)F)cn45)n3)C2)[nH][nH]1` (stereo not drawn) [IV-660, 5-(1-(2-(6-(Trifluoromethyl)imidazo[1,2-a]pyrazin-3-yl)pyrimidin-4-yl)piperidin-3-yl)-1,2-dihydro-3H-1,2,4-triazol-3-one] had a Ki of 100 to 1000 nM. Consider `C[C@@H]1CN(c2ccnc(-c3cnc4cnc(C(F)(F)F)cn34)n2)C[C@H](c2ccnn2C)N1` (racemic) [IV-667, Cis-3-(4-(3-Methyl-5-(1-methyl-1H-pyrazol-5-yl)piperazin-1-yl)pyrimidin-2-yl)-6-(trifluoromethyl)imidazo[1,2-a]pyrazine], for which the Ki was in the range of 100 to 1000 nM. The molecule `FC(F)(F)c1cn2c(-c3nccc(N4CCOC(c5cccnc5)C4)n3)cnc2cn1` (stereo not drawn) [IV-711] returned a Ki of 100 to 1000 nM. Still for that read-out and setting: with `OC1CCN(c2ccnc(-c3cnc4cnc(C(F)(F)F)cn34)n2)CC1` [IV-441, 1-(2-(6-(Trifluoromethyl)imidazo[1,2-a]pyrazin-3-yl)pyrimidin-4-yl)piperidin-4-ol] the figure was 100 to 1000 nM; with `FC(F)(F)c1cn2c(-c3nccc(N4CCC(c5nnc[nH]5)C4)n3)cnc2cn1` (stereo not drawn) [IV-642, 3-(4-(3-(4H-1,2,4-Triazol-3-yl)pyrrolidin-1-yl)pyrimidin-2-yl)-6-(trifluoromethyl)imidazo[1,2-a]pyrazine], 100 to 1000 nM. Regarding `CC1NCCN(c2ccnc(-c3cnc4cnc(C(F)F)cn34)n2)C1c1cn[nH]c1` (stereo not drawn) [IV-455, 6-(Difluoromethyl)-3-(4-(3-methyl-2-(1H-pyrazol-4-yl)piperazin-1-yl)pyrimidin-2-yl)imidazo[1,2-a]pyrazine], the Ki was 100 to 1000 nM. Take `CC(=O)NC1CCCN(c2ccnc(-c3cnc4cnc(C(N)=O)cn34)n2)C1` (stereo not drawn) [IV-249, 3-(4-(3-Acetamidopiperidin-1-yl)pyrimidin-2-yl)imidazo[1,2-a]pyrazine-6-carboxamide]: the Ki lay within 100 to 1000 nM. `CC(=O)N1CCN(c2ccc(C(F)(F)F)c(-c3cnc4cnc(C(N)=O)cn34)n2)CC1` [IV-700, 3-(6-(4-acetylpiperazin-1-yl)-3-(trifluoromethyl)pyridin-2-yl)imidazo[1,2-a]pyrazine-6-carboxamide] registered a Ki of 100 to 1000 nM. The same measure, in the same setting: with `NC(=O)C1CCN(c2ccnc(-c3cnc4cnc(C(F)(F)F)cn34)n2)CC1` [IV-611, 1-(2-(6-(Trifluoromethyl)imidazo[1,2-a]pyrazin-3-yl)pyrimidin-4-yl)piperidine-4-carboxamide] the figure was 100 to 1000 nM; with `NC(=O)c1cn2c(-c3cccc(N4CCN(C(=O)C5CC5)CC4)n3)cnc2cn1` [IV-284, 3-(6-(4-(Cyclopropanecarbonyl)piperazin-1-yl)pyridin-2-yl)imidazo[1,2-a]pyrazine-6-carboxamide], 100 to 1000 nM; with `NCC1CCN(c2ccnc(-c3cnc4cnc(C(F)(F)F)cn34)n2)CC1` [IV-487], 100 to 1000 nM. On the same count and under the same terms, with `FC(F)(F)c1cn2c(-c3nccc(N4CCC(N5CCOCC5)C4)n3)cnc2cn1` (stereo not drawn) [IV-553, 4-(1-(2-(6-(Trifluoromethyl)imidazo[1,2-a]pyrazin-3-yl)pyrimidin-4-yl)pyrrolidin-3-yl)morpholine] the figure was 100 to 1000 nM. The molecule `CC1(C(N)=O)CCN(c2ccnc(-c3cnc4cnc(C(F)(F)F)cn34)n2)C1` (stereo not drawn) [IV-581, 3-Methyl-1-(2-(6-(trifluoromethyl)imidazo[1,2-a]pyrazin-3-yl)pyrimidin-4-yl)pyrrolidine-3-carboxamide] yielded a Ki of 100 to 1000 nM. For the molecule `N#CC1CN(c2ccnc(-c3cnc4cnc(C(F)(F)F)cn34)n2)CCO1` (stereo not drawn) [IV-726], the Ki is above 1000 nM. On the same count and under the same terms, with `C[C@H]1[C@H](c2cn[nH]c2)OCCN1c1ccnc(-c2cnc3cnc(Br)cn23)n1` (racemic) [IV-312, Trans-4-(2-(6-Bromoimidazo[1,2-a]pyrazin-3-yl)pyrimidin-4-yl)-3-methyl-2-(1H-pyrazol-4-yl)morpholine] the figure was 10 to 100 nM. As for `FC(F)(F)c1cn2c(-c3nccc(N4CCCC5(COC5)C4)n3)cnc2cn1` [IV-523, 6-(2-(6-(Trifluoromethyl)imidazo[1,2-a]pyrazin-3-yl)pyrimidin-4-yl)-2-oxa-6-azaspiro[3.5]nonane], the Ki fell in the range of 100 to 1000 nM. Still for that read-out and setting: with `NC(=O)c1cn2c(-c3nccc(N4CCCC(N)C4)n3)cnc2cn1` (stereo not drawn) [IV-256, 3-(4-(3-Aminopiperidin-1-yl)pyrimidin-2-yl)imidazo[1,2-a]pyrazine-6-carboxamide] the figure was 100 to 1000 nM.

The assay is the same for the next values; noted with them: compounds of Formula II; 280 μM ATP, 4 nM GCN2 kinase.
The molecule `CC1CC(N=S(C)(C)=O)CN(c2cc(-c3cnc4ccc(C(F)F)nn34)ccn2)C1` (stereo not drawn) [II-691, ((1-(4-(6-(Difluoromethyl)imidazo[1,2-b]pyridazin-3-yl)pyridin-2-yl)-5-methylpiperidin-3-yl)imino)dimethyl-λ^6-sulfanone] gave a Ki of 10 to 1000 nM. On the same count and under the same terms, with `CS(C)(=O)=NC1CC(C(F)(F)F)CN(c2cc(-c3cnc4ccc(C(F)F)nn34)ncn2)C1` (stereo not drawn) [II-654, ((1-(6-(6-(Difluoromethyl)imidazo[1,2-b]pyridazin-3-yl)pyrimidin-4-yl)-5-(trifluoromethyl)piperidin-3-yl)imino)dimethyl-λ^6-sulfanone] the figure was 10 to 1000 nM; with `CS(=N)(=O)CC1CCCN(c2cc(-c3cnc4ccc(C(F)F)nn34)ncn2)C1` (single isomer, unassigned) [II-636, ((1-(6-(6-(Difluoromethyl)imidazo[1,2-b]pyridazin-3-yl)pyrimidin-4-yl)piperidin-3-yl)methyl)(imino)(methyl)-λ^6-sulfanone], 10 to 1000 nM; with `FC(F)c1ccc2ncc(-c3ccnc(N4CCCC(c5c[nH]cn5)C4)c3)n2n1` (stereo not drawn) [II-749], 10 to 1000 nM. `CC1CCN(c2cc(-c3cnc4ccc(C(F)F)nn34)ncn2)CC1N=S(C)(C)=O` (stereo not drawn) [II-629, ((1-(6-(6-(Difluoromethyl)imidazo[1,2-b]pyridazin-3-yl)pyrimidin-4-yl)-4-methylpiperidin-3-yl)imino)dimethyl-λ^6-sulfanone] displayed a Ki of 10 to 1000 nM.

`CC(=O)N1CCC(c2cc(-c3cnc4ccc(C(F)F)nn34)ncn2)CC1` [II-539]: the Ki lay within 10 to 1000 nM. Still for that read-out and setting: with `CC1CC(CNS(C)(=O)=O)CN(c2cc(-c3cnc4ccc(C(F)F)nn34)ncn2)C1C` (stereo not drawn) [II-591, N-((1-(6-(6-(Difluoromethyl)imidazo[1,2-b]pyridazin-3-yl)pyrimidin-4-yl)-5,6-dimethylpiperidin-3-yl)methyl)methanesulfonamide] the figure was below 10 nM. Regarding `CC1CC(N=S(C)(=O)C2CC2)CN(c2cc(-c3cnc4ccc(C(F)F)nn34)ncn2)C1` (single isomer, unassigned) [II-645, Cyclopropyl((1-(6-(6-(difluoromethyl)imidazo[1,2-b]pyridazin-3-yl)pyrimidin-4-yl)-5-methylpiperidin-3-yl)imino)(methyl)-λ^6-sulfanone], the Ki is 10 to 1000 nM. The same measure, in the same setting: with `CS(=O)(=O)NC1CN(c2cc(-c3cnc4ccc(C(F)F)nn34)ncn2)CCC1(F)F` (stereo not drawn) [II-589, N-(1-(6-(6-(Difluoromethyl)imidazo[1,2-b]pyridazin-3-yl)pyrimidin-4-yl)-4,4-difluoropiperidin-3-yl)methanesulfonamide] the figure was 10 to 1000 nM; with `CCS(C)(=O)=NC1CC(C)CN(c2cc(-c3cnc4ccc(C(F)F)nn34)ncn2)C1` (stereo not drawn) [II-635, ((1-(6-(6-(Difluoromethyl)imidazo[1,2-b]pyridazin-3-yl)pyrimidin-4-yl)-5-methylpiperidin-3-yl)imino)(ethyl)(methyl)-λ^6-sulfanone], 10 to 1000 nM. The same measure, in the same setting: with `CC1C(CO)N(C(C)(C)C)CCN1c1cc(-c2cnc3ccc(C(F)F)nn23)ncn1` (stereo not drawn) [II-43, (1-(tert-Butyl)-4-(6-(6-(difluoromethyl)imidazo[1,2-b]pyridazin-3-yl)pyrimidin-4-yl)-3-methylpiperazin-2-yl)methanol] the figure was above 1000 nM; with `CC1CC(CS(C)(=O)=O)C(C)N(c2cc(-c3cnc4ccc(C(F)F)nn34)ncn2)C1` (single isomer, unassigned) [II-625, 6-(Difluoromethyl)-3-[6-[2,5-dimethyl-3-(methylsulfonylmethyl)-1-piperidyl]pyrimidin-4-yl]imidazo[1,2-b]pyridazine], 10 to 1000 nM. Take `CC1CC(CNS(C)(=O)=O)CN(c2cc(-c3cnc4ccc(C(F)F)nn34)ncn2)C1C` (stereo not drawn) [II-592, N-((1-(6-(6-(Difluoromethyl)imidazo[1,2-b]pyridazin-3-yl)pyrimidin-4-yl)-5,6-dimethylpiperidin-3-yl)methyl)methanesulfonamide]: the Ki was below 10 nM.

The same assay, now with this note: compounds of Formula V; 280 μM ATP, 4 nM GCN2 kinase.
In the case of `O=C1CCN(c2ccnc(-c3cnc4sc(C(F)(F)F)cn34)n2)CCN1` [Compound V-8, 1-[2-[2-(Trifluoromethyl)imidazo[2,1-b]thiazol-5-yl]pyrimidin-4-yl]-1,4-diazepan-5-one], the Ki was 100 to 1000 nM.
